Tests used:
[1] = tested on: primary human macrophages; assay: Cytokine synthesis in primary human macrophages stimulated with tenascin-C or its domains; type: cell-based
Protocol: Human monocytes were isolated from peripheral blood (London Blood Bank) and macrophages were derived from monocytes after differentiation for 4 days with 100 ng/ml of M-CSF as previously described (Foxwell (1998)).
Immediately after isolation, RA membrane cells and macrophages were cultured at 1×10^5 cells/well in RPMI 1640 containing 10% (v/v) FBS and 100 U/ml (Units/ml) penicillin/streptomycin in 96-well tissue culture plates for 24 hours before stimulation. Synovial fibroblasts (used only at either passage number 2 or 3) were cultured at 1×10^4 cells/well in DMEM containing 10% (v/v) FBS and 100 U/ml penicillin/streptomycin in 96-well tissue culture plates for 24 hours before stimulation.
(§1) Cells were incubated for 24 hours at 37° C. with the indicated doses of tenascin-C and recombinant tenascin-C fragments (1.0 μM-1.0 nM). Cells were also stimulated where indicated with LPS (1 ng/ml for human macrophages, 10 ng/ml for human fibroblasts, RA membrane cells and HEKs, 100 ng/ml for MEFS and BMDMs and 10 ng/ml for HEKS), PAM3 (10 ng/ml for human macrophages, human fibroblasts, and HEKs, 100 ng/ml for MEFs and BMDMs), murine IL-1 (5 ng/ml for MEFS) and murine TNF-α (100 ng/ml for MEFS). Unless specifically stated otherwise rough LPS was used for in vitro studies.
Where stated, cells were pre-incubated with 10 μg/ml anti-CD14 antibody, 10 μg/ml IL1 receptor antagonist, 10 μg/ml anti-TLR2 antibody, 25 μg/ml anti-TLR4 antibody, 10 or 25 μg/ml isotype control antibody, 25 μg/ml polymyxin B, or 1 μg/ml msbB LPS, for 30 minutes at 37° C. before stimulation. Where stated, recombinant tenascin-C and FBG, and LPS were boiled for 15 minutes before addition to cells
(§2) Supernatants were subsequently examined for the presence of the cytokines TNF-α, IL-6, and IL-8 by enzyme-linked immunosorbent assay (ELISA) according to the manufacturer's instructions. Absorbance was read on a spectrophotometric ELISA plate reader (Labsystems Multiscan Biochromic, Vantaa, Finland) and analyzed using the Ascent software program (Thermo Labsystems, Altrincham, UK).

[2] = tested on: wild type mice; assay: Intra-articular injection of FBG in wild type mice, knee joint histology; type: in vivo
Protocol: Wild type mice were anesthetized by intraperitoneal injection of 150 μl of Hypnorm diluted 1:10 in sterile water and then injected with 100 ng, 1 or 3 μg FBG in 10 μl of sterile PBS into the right knee joint using a sterile 33-gauge microcannula. Control mice received an injection of 10 μl PBS alone or were not injected.
On days 3 and 7, mice were euthanized, the knee joints were excised and fixed in 10% (volume/volume) buffered formalin, decalcified, with 10% EDTA and processed to paraffin.
Coronal tissue sections (4 μm) were cut at 7 depths throughout the joint; 80 μm apart and stained with hematoxylin and eosin or Safranin-O to assess joint pathology.
Inflammation (the influx of inflammatory cells into synovium (infiltrate) and the joint cavity (exudates), was graded using an arbitrary scale from 0 (no inflammation) to 3 (severe inflammation). Chondrocyte death was determined as the percentage of cartilage area containing empty lacunae in relation to the total area. Cartilage surface erosion was determined as the amount of cartilage lost in relation to the total cartilage area. Bone destruction was determined in 10 different areas of the total knee joint section. Destruction was graded on a scale of 0 (no damage) to 3 (complete loss of bone structure). Histological analysis was performed by an investigator who was blinded to the experimental groups. The mean score for each animal in an experimental group was calculated by averaging the histopathologic scores in at least 5 section depths per joint.

[3] = tested on: MyD88; assay: Cytokine synthesis in embryonic fibroblasts from MyD88 deficient mice; type: cell-based
Protocol: (§3) MEFs express high levels of mRNA of all 9 murine TLRs and are specifically and highly responsive to TLR ligand activation. […] MEFs were isolated from d13 embryos harvested from age-matched, pregnant female wild type, TLR2, TLR4 and null mice (as described in Todaro (1963)). Fibroblasts were cultured at 2×10^4 cells/well in DMEM containing 10% (v/v) FBS and 100 U/ml penicillin/streptomycin in 96-well tissue culture plates for 24 hours before stimulation.
as §1, §2

[4] = tested on: TLR4; assay: Cytokine synthesis in embryonic fibroblasts or macrophages from TLR4 deficient mice; type: cell-based
Protocol: as §3
BMDMs were derived by aspirating the femurs of age matched female wild type, TLR2 and TLR4 null mice as described in Butler (1999)) and culturing the cells for 7 days in DMEM, 20% (v/v) FBS, 10 ml/L (v/v) antibiotic-antimycotic solution PSA, 50 μM β-Mercaptoethanol and 10 ng/ml M-CSF. Macrophages were then cultured at 1×10^5 cells/well in DMEM, 20% (v/v) FBS, 10 ml/L (v/v) antibiotic-antimycotic solution PSA, 50 μM β-Mercaptoethanol in 96-well tissue culture plates for 24 hours before stimulation.
as §1, §2

[5] = tested on: human dermal fibroblasts (HDF); assay: Cell adhesion to coated FBG, human dermal fibroblasts; type: cell-based; conditions: coated wells, 45 minutes, crystal violet
Protocol: (§4) (A) The sequence identified to bind integrin ≢vβ3 is shown in white (Yokoyama et al., 2000). Within this sequence two Arginines (shown in black) were identified to be citrullinated. (B) Wells of a 96 well plate were coated with different concentrations of FBG, citrullinated FBG (cFBG), FBG incubated in buffer without Calcium (FBG —Ca^2+), or FBG incubated without PAD (FBG -PAD). As a positive control wells were coated with Fibronectin (FN) (1 ug/ml), and coating with BSA (10 mg/ml) served as negative control. Plates were incubated with human dermal fibroblasts (HDF) or synovial fibroblasts from RA patients (RAF) for 45 minutes and adhesion was measured by determining absorbance of attached cells after staining with crystal violet (0.1%). Data are shown as the mean of at least four independent experiments+s.e.m., *=p<0.05, **=p<0.01.

[6] = tested on: synovial fibroblasts from RA patients (RAF); assay: Cell adhesion to coated FBG, RA synovial fibroblasts; type: cell-based, human; conditions: coated wells, 45 minutes, crystal violet
Protocol: as §4

[7] = 1 μg FBG, 3 days after injection

Substance: FBG: recombinant fibrinogen-like globe, 227 amino acid globular domain at the C terminal of tenascin-C
- heat and polymyxin B sensitivity of cytokine stimulation ([1]; boiled 15 min, 25 μg/ml polymyxin B pre-incubation): heat sensitive and unaffected by polymyxin B
- production of TNF-α, IL-6 and IL-8 ([1]; human macrophages, 24 h, 1.0 μM-1.0 nM): to an equal extent to full-length tenascin-C
- inflammation and proteoglycan loss ([2]; 100 ng FBG intra-articular): No inflammation or proteoglycan loss
- knee joint histology ([2]; 1 μg FBG intra-articular, 3 days): inflammatory cell infiltration (FIG. 6f), mild synovitis, pannus formation (FIG. 6g) and proteoglycan loss
- histological quantification: cartilage surface erosion and bone damage [2, 7]: modest amount
- histological quantification: cellular infiltrate, exudate and chondrocyte death [2, 7]: high levels
- knee joint histology ([2]; 3 μg FBG intra-articular): A similar response
- joint inflammation ([2]; wild type mice, intra-articular, 100 ng, 1 or 3 μg): transient and dose dependent stimulation of joint inflammation
- cytokine synthesis ([3]; MEFs from MyD88 deficient mice, 24 h): does not stimulate cytokine synthesis
- responsiveness after re-transfection of wild type MyD88 ([3]; MyD88 deficient MEFs, data not shown): restored the responsiveness
- cytokine synthesis [4]: does not stimulate cytokine synthesis
- adhesion of human dermal fibroblasts (HDF) [5]: proadhesive
- adhesion of synovial fibroblasts from RA joints (RAF) [6]: proadhesive

Source: US20170009228A1, “BIOLOGICAL MATERIALS AND THERAPEUTIC USES THEREOF” (IMPERIAL INNOVATIONS LIMITED, priority 2014, published 2017)
